According to patent publication US20250177359A1, “COMPOUNDS FOR USE IN THE TREATMENT OF CANCER AND INFLAMMATORY CONDITIONS” (priority 2022, published 2025):
Where two headings read alike, the source gives them in different places.

Assays:
TNKS2 = biological target: T1, TNKS2 (Homo sapiens, UniProt Q9H2K2); experiment: biochemical
T1 sequence (Q9H2K2 1-1166): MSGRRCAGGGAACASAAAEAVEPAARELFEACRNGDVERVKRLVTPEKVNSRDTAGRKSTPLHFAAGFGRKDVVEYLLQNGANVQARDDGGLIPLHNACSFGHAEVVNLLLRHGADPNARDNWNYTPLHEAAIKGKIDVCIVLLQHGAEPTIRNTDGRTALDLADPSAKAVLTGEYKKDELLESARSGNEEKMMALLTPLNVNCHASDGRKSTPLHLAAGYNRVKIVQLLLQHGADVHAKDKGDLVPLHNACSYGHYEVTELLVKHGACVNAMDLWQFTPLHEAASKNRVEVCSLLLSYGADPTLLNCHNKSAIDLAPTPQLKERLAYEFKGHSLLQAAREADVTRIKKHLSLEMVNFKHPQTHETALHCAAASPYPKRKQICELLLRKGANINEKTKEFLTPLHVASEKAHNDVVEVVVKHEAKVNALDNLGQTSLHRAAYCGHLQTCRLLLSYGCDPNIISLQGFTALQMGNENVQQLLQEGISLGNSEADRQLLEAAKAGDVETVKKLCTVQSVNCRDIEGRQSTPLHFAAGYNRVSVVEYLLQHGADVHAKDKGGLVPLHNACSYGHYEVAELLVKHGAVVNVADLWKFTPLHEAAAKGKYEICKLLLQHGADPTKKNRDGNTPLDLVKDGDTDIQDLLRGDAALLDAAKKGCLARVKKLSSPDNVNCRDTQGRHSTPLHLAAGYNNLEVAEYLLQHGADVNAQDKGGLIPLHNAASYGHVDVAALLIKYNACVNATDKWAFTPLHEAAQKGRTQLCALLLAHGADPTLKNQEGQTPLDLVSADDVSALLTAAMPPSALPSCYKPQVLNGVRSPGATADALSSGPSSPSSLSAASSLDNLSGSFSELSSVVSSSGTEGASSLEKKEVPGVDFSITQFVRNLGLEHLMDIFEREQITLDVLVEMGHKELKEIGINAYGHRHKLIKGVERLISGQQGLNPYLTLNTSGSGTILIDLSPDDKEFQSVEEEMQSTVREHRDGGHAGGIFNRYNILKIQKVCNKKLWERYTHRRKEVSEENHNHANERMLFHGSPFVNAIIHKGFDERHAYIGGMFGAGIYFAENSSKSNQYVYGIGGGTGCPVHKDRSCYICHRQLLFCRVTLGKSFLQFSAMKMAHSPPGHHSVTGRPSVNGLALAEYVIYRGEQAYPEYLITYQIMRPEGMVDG
Procedure: (§1) All starting materials, reagents, and solvents were purchased from common commercial suppliers and were used as such without further purification. […] Organic solutions were dried over anhydrous Na2SO4 and concentrated with rotary evaporator at low pressure. All the reactions were routinely checked by thin-layer chromatography (TLC) on silica gel 60F254 (Merck) and visualized by using UV and iodine. Flash chromatography separations were carried out on Merck silica gel 60 (mesh 230-400) or by using automated Buchi Reveleris X2-UV with column FP Ecoflex Si 12 g. Yields were of purified products and were not optimized. ^1HNMR spectra were recorded at 400 MHz (Bruker Avance DRX-400), while ^13CNMR spectra were recorded at 101 MHz (Bruker Avance DRX-400). Chemical shifts are given in ppm (δ) relative to TMS. […] Mating constant (J) are reported in Hz. The purity of the tested compounds was evaluated by HPLC analysis using Jasco LC-4000 instrument equipped with a UV-Visible Diode Array Jasco-MD4015 (Jasco Corporation, Tokyo, Japan), and XTerra MS C18 column, 5 μm×4.6 mm×150 mm (Waters Corporation, Massachusetts, USA). Chromatograms were analyzed by ChromNAV2.0 Chromatography Data System software. […] The peak retention time (ret. time) is given in minutes. […] 1-Isobutoxy-4-methoxy-2-nitrobenzene (113). Isobutyl alcohol (0.6 mL, 6.43 mmol) was added, under nitrogen atmosphere at 0° C., to a suspension of NaH (0.26 g, 6.43 mmol) in dry DMF. After 15 minutes, 1-fluoro-4-methoxy-2-nitrobenzene 112 (1 g, 5.84 mmol) was also added and the reaction mixture was stirred at 80° C. for 4 h. […] (2-Isobutoxy-5-methoxyphenyl)amine (114). Zn (1.57 g, 24 mmol) and NH4C1 (2.45 g, 40 mmol) were added to a solution of 113 (0.46 g, 2 mmol) in acetone/H2O (50 mL, ratio 5:1). The reaction mixture was stirred at 60° C. for 3 h and, then, it was filtered over celite. […] N-(2,5-diethoxyphenyl)thiourea (55). […] N-(2-isobutoxy-5-methoxyphenyl)thiourea (115). […] A solution of Br2 (0.2 mL, 3.3 mmol) in CHCl3 (5 mL) was slowly added to a suspension of 45 (0.6 g, 3.3 mmol) in CHCl3 (13 mL), at 0° C. The reaction mixture was stirred at r.t. for 4 h and, then, a 10% solution of Na2SO3 in water was added to the mixture. […] 4,7-Diethoxy-1,3-benzothiazol-2-amine (66). […] 4-Isobutoxy-7-methoxy-1,3-benzothiazol-2-amine (116). […] Hydrazine hydrate (0.23 mL, 4.77 mmol) and CH3COOH (0.12 mL, 2.1 mmol) were added to a suspension of 56 (0.29 g, 1.59 mmol) in ethylene glycol (8 mL), and the reaction mixture was stirred for 24 h at 125° C. […] 6-Ethyl-2-hydrazino-1,3-benzothiazole (69). […] 6-Ispropyl-2-hydrazino-1,3-benzothiazole (70). […] 2-Hydrazino-4,7-dimethoxy-1,3-benzothiazole (73). […] 2-Hydrazino-5,7-dimethoxy-1,3-benzothiazole (75). […] 2-Hydrazino-4,7-Diethoxy-1,3-benzothiazole (77). […] 2-Hydrazino-5-methyl[1,3]thiazolo[5,4-b]pyridine (100). […] A solution of 67 (0.13 g, 0.65 mmol) in formic acid (5 mL) was refluxed for 10 h. The reaction mixture was then poured into ice/water and the pH was neutralized using a saturated solution of NaHCO3.

PARP2 = biological target: T2, PARP2 (Homo sapiens, UniProt Q9UGN5); experiment: biochemical; assay type: biochemical
T2 construct: made in house
Procedure: as §1

[1] = read-out: TNKS2 IC50, NAD+ consumption assay, > less than 50% inhibition at highest concentration, >> no inhibition
[2] = NAD+ consumption assay, > less than 50% inhibition at highest concentration, >> no inhibition

T2 sequence (Q9UGN5 whole entry): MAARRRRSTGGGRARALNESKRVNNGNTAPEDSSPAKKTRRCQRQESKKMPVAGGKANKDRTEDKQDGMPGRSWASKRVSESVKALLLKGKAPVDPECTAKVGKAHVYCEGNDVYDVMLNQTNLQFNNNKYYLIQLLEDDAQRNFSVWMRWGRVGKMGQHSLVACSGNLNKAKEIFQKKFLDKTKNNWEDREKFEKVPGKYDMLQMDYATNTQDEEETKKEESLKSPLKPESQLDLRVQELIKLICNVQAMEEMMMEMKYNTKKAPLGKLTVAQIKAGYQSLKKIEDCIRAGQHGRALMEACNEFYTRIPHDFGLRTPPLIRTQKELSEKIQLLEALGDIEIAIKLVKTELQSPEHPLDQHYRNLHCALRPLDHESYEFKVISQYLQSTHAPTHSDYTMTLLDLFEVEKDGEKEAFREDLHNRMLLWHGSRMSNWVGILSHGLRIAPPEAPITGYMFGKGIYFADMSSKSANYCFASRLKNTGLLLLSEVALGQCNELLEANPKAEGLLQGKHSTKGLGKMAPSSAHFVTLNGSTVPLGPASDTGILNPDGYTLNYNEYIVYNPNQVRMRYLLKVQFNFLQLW

Row | SMILES | IC50 (TNKS2; [1]) [µM] | IC50 (PARP2; [2]) [µM] | IC50 (PARP2) [µM] | TNKS2 pIC50 ± SEM (TNKS2; experiment repeated three times) | IC50 (TNKS2) [µM]
1 | Cc1ccc2c(c1)sc1nncn12 [Compound 1] | 5.3 | 4 | – | – | –
2 | Cc1cc(C)c2c(c1)sc1nncn12 [Compound 2] | 1.2 | 1.3 | – | – | –
3 | c1ccc2c(c1)sc1nncn12 [Compound 3] | 2.5 | – | 5.3 | – | –
4 | Cc1ccc(F)c2c1sc1nncn12 [Compound 4, 5-Fluoro-8-methyl[1,2,4]triazolo[3,4-b][1,3]benzothiazole] | 5.4 | – | – | – | –
5 | Cc1ccc2sc3nncn3c2c1 [Compound 5, 6-Methyl[1,2,4]triazolo[3,4-b][1,3]benzothiazole] | – | 1.5 | – | (6.02 ± 0.13) | –
6 | Cc1cccc2c1sc1nncn12 [Compound 6, 8-Methyl[1,2,4]triazolo[3,4-b][1,3]benzothiazole] | 3.8 | 8.3 | – | – | –
7 | CCc1ccc2c(c1)sc1nncn12 [Compound 7, 7-Ethyl[1,2,4]triazolo[3,4-b][1,3]benzothiazole] | 5.3 | 3.9 | – | – | –
8 | CC(C)c1ccc2c(c1)sc1nncn12 [Compound 8, 7-Isopropyl[1,2,4]triazolo[3,4-b][1,3]benzothiazole] | 9.5 | 4.5 | – | – | –
9 | Clc1ccc2c(c1)sc1nncn12 [Compound 9] | 10 | 2.4 | – | – | –
10 | COc1ccc2sc3nncn3c2c1 [Compound 11, 6-Methoxy[1,2,4]triazolo[3,4-b][1,3]benzothiazole] | 1 | 4.7 | – | – | –
11 | COc1ccc2c(c1)sc1nncn12 [Compound 12] | 5.5 | 8.8 | – | – | –
12 | COc1ccc(OC)c2c1sc1nncn12 [Compound 13, 5,8-Dimethoxy[1,2,4]triazolo[3,4-b][1,3]benzothiazole] | 4 | 9.2 | – | – | –
13 | COc1cccc2c1sc1nncn12 [Compound 14, 8-Methoxy[1,2,4]triazolo[3,4-b][1,3]benzothiazole] | 24 | – | > 10 | – | –
14 | COc1cccc2sc3nncn3c12 [Compound 15, 5-Methoxy[1,2,4]triazolo[3,4-b][1,3]benzothiazole] | 1 | – | – | – | –
15 | COc1cc(OC)c2sc3nncn3c2c1 [Compound 16, 6,8-Dimethoxy[1,2,4]triazolo[3,4-b][1,3]benzothiazole] | 7.6 | 20 | – | – | –
16 | Oc1cccc2c1sc1nncn12 [Compound 18, [1,2,4]Triazolo[3,4-b][1,3]benzothiazol-8-ol] | 17 | 29 | – | – | –
17 | CSc1nnc2sc3cc(C)ccc3n12 [Compound 21, 7-Methyl-3-(methylthio)[1,2,4]triazolo[3,4-b][1,3]benzothiazole] | – | 12 | – | – | > 100
18 | Cc1ccc2c(c1)sc1nnc(SCc3ccc(Cl)cc3)n12 [Compound 23, 3-[(4-Chlorobenzyl)thio]-7-methyl[1,2,4]triazolo[3,4-b][1,3]benzothiazole] | – | – | > 100 | – | > 100
19 | Cc1ccc2c(c1)sc1nnc(NCc3ccc(Cl)cc3)n12 [Compound 24, N-(4-chlorobenzyl)-7-methyl[1,2,4]triazolo[3,4-b][1,3]benzothiazol-3-amine] | – | 70 | – | – | > 100
20 | Cc1ccc2c(c1)sc1nnc(/N=C\c3ccc(Cl)cc3)n12 [Compound 25, N-[(1Z)-(4-chlorophenyl)methylene]-7-methyl[1,2,4]triazolo[3,4-b][1,3]benzothiazol-3-amine] | – | 2.9 | – | – | > 100
21 | COc1ccc(OC)c2c1sc1n[nH]c(=S)n12 [Compound 26, 5,8-Dimethoxy[1,2,4]triazolo[3,4-b][1,3]benzothiazole-3(2H)-thione] | 66 | 19 | – | – | –
22 | COc1ccc(OC)c2c1sc1nnc(NC(=O)C(C)(C)C)n12 [Compound 30, N-(5,8-dimethoxy[1,2,4]triazolo[3,4-b][1,3]benzothiazol-3-yl)-2,2-dimethylpropanamide] | – | 53 | – | – | –
23 | COc1ccc(OC)c2c1sc1nnc(NC(C)=O)n12 [Compound 31, N-(5,8-dimethoxy[1,2,4]triazolo[3,4-b][1,3]benzothiazol-3-yl)acetamide] | – | 97 | – | – | –
